Test results reported in patent publication US10052330B2, “Substituted pyrido[3,4-b]pyrazines as Syk inhibitors” (HUTCHISON MEDIPHARMA LIMITED, priority 2011, dated 2018).

Molecular target: Syk kinase (Homo sapiens, UniProt P43405)
Test: Syk kinase enzymatic assay (Kit-Tyr 2 Peptide)
Type: biochemical
Settings: 8 concentrations, 1 μM down to 0.0003 μM; upper bound of each range is 'less than'; read-out: IC50: Enzymatic Activity (Syk kinase)

Row | SMILES | IC50
1 | O=S(=O)(c1ccc(-c2cc3nccnc3c(NC[C@@H]3CNCCO3)n2)cc1)N1CCOCC1 [Compound 283] | 100 to 1000 nM
2 | CNS(=O)(=O)c1ccc(-c2cc3nccnc3c(NC[C@@H]3CNCCO3)n2)cc1 [Compound 284] | 100 to 1000 nM
3 | COCCn1cc(-c2cc3nccnc3c(NCC3(F)CCCNC3)n2)cn1 (centres unmarked) [Compound 288] | 100 to 1000 nM
4 | COc1ccc(-c2cc3nccnc3c(NCC3CNCCC3(F)F)n2)cn1 (centres unmarked) [Compound 299] | 100 to 1000 nM
5 | O=C(C(F)F)N1CCC(F)(F)C(CNc2nc(-c3cnn(C4CCOCC4)c3)cc3nccnc23)C1 (centres unmarked) [Compound 325] | 100 to 1000 nM
6 | CC(=O)N1CCO[C@H](CNc2nc(-c3ccc(N4CCOCC4)cc3)cc3nccnc23)C1 [Compound 326] | 100 to 1000 nM
7 | CCC(=O)N1CCO[C@H](CNc2nc(-c3ccc(N4CCOCC4)cc3)cc3nccnc23)C1 [Compound 327] | 100 to 1000 nM
8 | CC(C)C(=O)N1CCO[C@H](CNc2nc(-c3ccc(N4CCOCC4)cc3)cc3nccnc23)C1 [Compound 328] | 100 to 1000 nM
9 | O=C(CO)N1CCO[C@H](CNc2nc(-c3ccc(N4CCOCC4)cc3)cc3nccnc23)C1 [Compound 337] | 100 to 1000 nM
10 | CNC(=O)N1CCO[C@H](CNc2nc(-c3ccc(N4CCOCC4)cc3)cc3nccnc23)C1 [Compound 339] | 100 to 1000 nM
11 | CC(C)(F)C(=O)N1CCO[C@H](CNc2nc(-c3ccc(N4CCOCC4)cc3)cc3nccnc23)C1 [Compound 341] | 100 to 1000 nM
12 | CC(F)(F)C(=O)N1CCO[C@H](CNc2nc(-c3ccc(N4CCOCC4)cc3)cc3nccnc23)C1 [Compound 342] | 100 to 1000 nM
13 | O=C(CC(F)(F)F)N1CCO[C@H](CNc2nc(-c3ccc(N4CCOCC4)cc3)cc3nccnc23)C1 [Compound 343] | 100 to 1000 nM
14 | O=S(=O)(C1CC1)N1CCO[C@H](CNc2nc(-c3ccc(N4CCOCC4)cc3)cc3nccnc23)C1 [Compound 344] | 100 to 1000 nM
15 | NC(=O)N1CCO[C@H](CNc2nc(-c3ccc(N4CCOCC4)c(F)c3)cc3nccnc23)C1 [Compound 348] | 100 to 1000 nM
16 | NC(=O)N1CCC(CNc2nc(-c3ccc(N4CCOCC4)cc3)cc3nccnc23)CC1 [Compound 350] | 100 to 1000 nM
17 | NC(=O)N1CCCCC1CNc1nc(-c2ccc(N3CCOCC3)cc2)cc2nccnc12 (centres unmarked) [Compound 354] | 100 to 1000 nM
18 | NC(=O)N1CCC(F)(F)C(CNc2nc(-c3cnn(C4CCOCC4)c3)cc3nccnc23)C1 (centres unmarked) [Compound 355] | 100 to 1000 nM
19 | NC(=O)N1CCC(F)(F)C(CNc2nc(-c3ccc(N4CCOCC4)cc3)cc3nccnc23)C1 (centres unmarked) [Compound 356] | 100 to 1000 nM
20 | CNc1nc(-c2ccc(N3CCOCC3)cc2)cc2nccnc12 [Compound 357] | 100 to 1000 nM
21 | CC(CO)Nc1nc(-c2ccc(N3CCOCC3)cc2)cc2nccnc12 (centres unmarked) [Compound 358] | 100 to 1000 nM

Row | SMILES | IC50
22 | O=C1CN(c2nc(-c3ccc(N4CCOCC4)cc3)cc3nccnc23)CCN1 [Compound 360] | 100 to 1000 nM
23 | O=C(O)c1ccccc1Nc1nc(-c2ccc(N3CCOCC3)cc2)cc2nccnc12 [Compound 361] | 100 to 1000 nM
24 | NC(=O)[C@H]1CC[C@@H](Nc2nc(-c3ccc(N4CCOCC4)cc3)cc3nccnc23)CC1 [Compound 363] | 100 to 1000 nM
25 | Fc1cc(-c2cc3nccnc3c(NC[C@H]3CNCCC3(F)F)n2)ccc1N1CCOCC1 [Compound 369, (R)—N-((4,4-difluoropiperidin-3-yl)methyl)-7-(3-fluoro-4-morpholinophenyl)pyrido[4,3-b]pyrazin-5-amine] | 100 to 1000 nM
26 | FC1(F)CCNC[C@@H]1CNc1nc(-c2ccc(N3CCOCC3)nc2)cc2nccnc12 [Compound 375, (R)—N-((4,4-difluoropiperidin-3-yl)methyl)-7-(6-morpholinopyridin-3-yl)pyrido[4,3-b]pyrazin-5-amine] | 100 to 1000 nM
27 | F[C@]1(CNc2nc(-c3ccc(N4CCOCC4)nc3)cc3nccnc23)CCCNC1 [Compound 379, (R)—N-((3-fluoropiperidin-3-yl)methyl)-7-(6-morpholinopyridin-3-yl)pyrido[4,3-b]pyrazin-5-amine] | 100 to 1000 nM
28 | CS(=O)(=O)c1ccc(-c2cc3nccnc3c(NC[C@H]3CNCCC3(F)F)n2)cc1 [Compound 391, (R)—N-((4,4-difluoropiperidin-3-yl)methyl)-7-(4-(methylsulfonyl)phenyl)pyrido[4,3-b]pyrazin-5-amine] | 100 to 1000 nM
29 | O=C(C(F)F)N1CCO[C@H](CNc2nc(-c3ccc(N4CCOCC4)c(Cl)c3)cc3nccnc23)C1 [Compound 452] | 100 to 1000 nM
30 | CNc1ccc(-c2cc3nccnc3c(NC[C@@H]3CN(C(=O)C(F)F)CCO3)n2)cc1 [Compound 453] | 100 to 1000 nM
31 | COc1ccc(-c2cc3nccnc3c(NC[C@@H]3CN(C(=O)C(F)F)CCO3)n2)cc1OC [Compound 454] | 100 to 1000 nM
32 | CNc1ccc(-c2cc3nccnc3c(NC[C@@H]3CN(C(=O)C(F)F)CCO3)n2)cc1F [Compound 457] | 100 to 1000 nM
33 | CNC(=O)COc1ccc(-c2cc3nccnc3c(NC[C@@H]3CN(C(=O)C(F)F)CCO3)n2)cc1 [Compound 461] | 100 to 1000 nM
34 | CCN(CC)c1ccc(-c2cc3nccnc3c(NC[C@@H]3CN(C(=O)C(F)F)CCO3)n2)cc1 [Compound 471] | 100 to 1000 nM
35 | CN(CCO)c1ccc(-c2cc3nccnc3c(NC[C@@H]3CNCCO3)n2)cc1 [Compound 472, (S)-2-(methyl(4-(5-(morpholin-2-ylmethylamino)pyrido[4,3-b]pyrazin-7-yl)phenyl)amino)ethanol] | 100 to 1000 nM
36 | CS(=O)(=O)CCOc1ccc(-c2cc3nccnc3c(NC[C@@H]3CNCCO3)n2)cc1 [Compound 478, (S)-7-(4-(2-(methylsulfonyl)ethoxy)phenyl)-N-(morpholin-2-ylmethyl)pyrido[4,3-b]pyrazin-5-amine] | 100 to 1000 nM
37 | O=S1(=O)CCNCC1CNc1nc(-c2ccc(N3CCOCC3)c(F)c2)cc2nccnc12 (centres unmarked) [Compound 483] | 100 to 1000 nM
38 | CN1CCN(c2ccc(-c3cc4nccnc4c(NCC4CNCCS4(=O)=O)n3)cc2)CC1 (centres unmarked) [Compound 484] | 100 to 1000 nM
39 | CC(=O)N1CCN(c2ccc(-c3cc4nccnc4c(NC[C@@H]4CN(S(C)(=O)=O)CCO4)n3)cc2)CC1 [Compound 491] | 100 to 1000 nM
40 | CS(=O)(=O)N1CCN(c2ccc(-c3cc4nccnc4c(NC[C@@H]4CN(S(C)(=O)=O)CCO4)n3)cc2)CC1 [Compound 492] | 100 to 1000 nM
41 | CS(=O)(=O)N1CCC(c2ccc(-c3cc4nccnc4c(NC[C@@H]4CN(O)CCO4)n3)cc2)CC1 [Compound 496, (R)-2-((7-(4-(1-(methylsulfonyl)piperidin-4-yl)phenyl)pyrido[4,3-b]pyrazin-5-ylamino)methyl)morpholin-4-ol] | 100 to 1000 nM

The remaining lines, values ahead:

Row | IC50 | SMILES
42 | 100 to 1000 nM | FC1(F)CNCC(CNc2nc(-c3ccc(N4CCOCC4)nc3)cc3nccnc23)C1 (centres unmarked) [Compound 206]
43 | 100 to 1000 nM | CNc1ccc(-c2cc3nccnc3c(NCC3CNCC(F)(F)C3)n2)cc1F (centres unmarked) [Compound 207]
44 | 100 to 1000 nM | CCn1cc(-c2cc3nccnc3c(NC[C@@H]3CNCCO3)n2)cn1 [Compound 209]
45 | 100 to 1000 nM | Cn1cc(-c2cc3nccnc3c(NC[C@@H]3CNCCO3)n2)cn1 [Compound 210]
46 | 100 to 1000 nM | CS(=O)(=O)c1ccc(-c2cc3nccnc3c(NC[C@@H]3CNCCO3)n2)cc1 [Compound 211]
47 | 100 to 1000 nM | CN(C)Cc1ccc(-c2cc3nccnc3c(NC[C@@H]3CNCCO3)n2)cc1 [Compound 212]
48 | 100 to 1000 nM | CN(C)C(=O)Cc1ccc(-c2cc3nccnc3c(NC[C@@H]3CNCCO3)n2)cc1 [Compound 224]
49 | 100 to 1000 nM | CN(C)S(=O)(=O)c1ccc(-c2cc3nccnc3c(NCC3CNCCO3)n2)cc1 (centres unmarked) [Compound 227]
50 | 100 to 1000 nM | O=C1COCCN1c1ccc(-c2cc3nccnc3c(NC[C@@H]3CNCCO3)n2)cc1 [Compound 242]
51 | 100 to 1000 nM | c1cnc2c(NC[C@@H]3CNCCO3)nc(-c3ccc4c(c3)OCCO4)cc2n1 [Compound 244]
52 | 100 to 1000 nM | Fc1ccc(-c2cc3nccnc3c(NC[C@@H]3CNCCO3)n2)cc1 [Compound 245]
53 | 100 to 1000 nM | C[C@@H]1CN(c2ccc(-c3cc4nccnc4c(NC[C@@H]4CNCCO4)n3)cn2)C[C@H](C)O1 [Compound 246]
54 | 100 to 1000 nM | c1cn(-c2ccc(-c3cc4nccnc4c(NC[C@@H]4CNCCO4)n3)cc2)cn1 [Compound 248]
55 | 100 to 1000 nM | Cn1cc(-c2ccc(-c3cc4nccnc4c(NC[C@@H]4CNCCO4)n3)cc2)cn1 [Compound 249]
56 | 100 to 1000 nM | FC1(CNc2nc(-c3ccc(N4CCOCC4)nc3)cc3nccnc23)CCCNC1 (centres unmarked) [Compound 252]
57 | 100 to 1000 nM | CN1CC2CN(c3ccc(-c4cc5nccnc5c(NC[C@@H]5CNCCO5)n4)cn3)CC2C1 (some centres unmarked) [Compound 256]
58 | 100 to 1000 nM | OC1CCN(c2ccc(-c3cc4nccnc4c(NC[C@@H]4CNCCO4)n3)cn2)C1 (some centres unmarked) [Compound 257]
59 | 100 to 1000 nM | c1cnc2c(NC[C@@H]3CNCCO3)nc(-c3ccc(OCC4CCOCC4)nc3)cc2n1 [Compound 258]
60 | 100 to 1000 nM | CN1CCC(n2cc(-c3cc4nccnc4c(NC[C@@H]4CNCCO4)n3)cn2)CC1 [Compound 262]
61 | 100 to 1000 nM | c1cnc2c(NC[C@@H]3CNCCO3)nc(-c3ccc(OCCN4CCOCC4)nc3)cc2n1 [Compound 263]
62 | 100 to 1000 nM | CC(C)(O)COc1ccc(-c2cc3nccnc3c(NC[C@@H]3CNCCO3)n2)cc1 [Compound 268]
63 | 100 to 1000 nM | c1cnc2c(NC[C@@H]3CNCCO3)nc(-c3ccc(OC4CCOCC4)nc3)cc2n1 [Compound 271]
64 | 100 to 1000 nM | CC(Nc1nc(-c2ccc(N3CCOCC3)nc2)cc2nccnc12)C1CNCCO1 (centres unmarked) [Compound 277]
65 | 1 to 100 nM | NC(=O)CCC(=O)N1CCN(c2ccc(-c3cc4nccnc4c(NCC4CNCCO4)n3)cc2)CC1 (centres unmarked) [Compound 422]
66 | 1 to 100 nM | CS(=O)(=O)N1CCC(n2cc(-c3cc4nccnc4c(NC[C@@H]4CNCCO4)n3)cn2)CC1 [Compound 431]
67 | 1 to 100 nM | CS(=O)(=O)N1CCO[C@H](CNc2nc(-c3ccc(C4CCNCC4)cc3)cc3nccnc23)C1 [Compound 459]
68 | 1 to 100 nM | CC[N+]1(CC)CCC(c2ccc(-c3cc4nccnc4c(NC[C@@H]4CN(C(=O)C(F)F)CCO4)n3)cc2)CC1 [Compound 480, (R)-4-(4-(5-((4-(2,2-difluoroacetyl)morpholin-2-yl)methylamino)pyrido[4,3-b]pyrazin-7-yl)phenyl)-1,1-diethylpiperidinium iodide]
